Assay type in all cases: cell-based
Assay [1] concerns the target T1, OCT1 (Homo sapiens, UniProt O15245).
T1 construct: gene SLC22A1; OCT1 expressed in oocytes (pcDNA3.1-OCT1)
T1 sequence (O15245 1-554): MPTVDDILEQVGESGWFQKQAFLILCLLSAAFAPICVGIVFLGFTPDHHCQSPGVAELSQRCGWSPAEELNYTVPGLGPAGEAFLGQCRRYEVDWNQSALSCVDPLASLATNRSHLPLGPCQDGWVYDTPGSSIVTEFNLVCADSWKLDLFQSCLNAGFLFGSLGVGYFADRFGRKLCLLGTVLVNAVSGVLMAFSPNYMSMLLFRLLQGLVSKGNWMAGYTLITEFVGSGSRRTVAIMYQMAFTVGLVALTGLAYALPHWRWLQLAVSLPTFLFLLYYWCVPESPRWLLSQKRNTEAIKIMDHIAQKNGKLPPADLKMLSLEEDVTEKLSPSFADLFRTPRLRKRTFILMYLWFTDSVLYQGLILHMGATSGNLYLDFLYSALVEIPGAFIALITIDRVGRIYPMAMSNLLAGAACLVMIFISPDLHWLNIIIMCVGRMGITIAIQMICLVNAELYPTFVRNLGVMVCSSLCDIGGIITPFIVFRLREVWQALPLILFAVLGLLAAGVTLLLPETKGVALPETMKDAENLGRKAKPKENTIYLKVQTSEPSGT
Description: inhibition of OCT1-mediated [3H]MPP+ uptake and direct tryptophan uptake in oocytes. The following applies: read-out: % inhibition at 1 mM.

Assay [2] deals with T2, Organic cation transporter 2 (OCT2) (Homo sapiens, UniProt O15244).
T2 construct: gene SLC22A2
Description: inhibition of [3H]MPP+ uptake and direct [3H]tryptophan uptake in OCT2-expressing oocytes.

The target in assay [3] is T3, Organic cation transporter 2 (OCT2) 808G>T variant (Homo sapiens, UniProt O15244).
T3 construct: gene SLC22A2; OCT2 808G>T variant expressed in oocytes
T3 sequence (O15244 1-555): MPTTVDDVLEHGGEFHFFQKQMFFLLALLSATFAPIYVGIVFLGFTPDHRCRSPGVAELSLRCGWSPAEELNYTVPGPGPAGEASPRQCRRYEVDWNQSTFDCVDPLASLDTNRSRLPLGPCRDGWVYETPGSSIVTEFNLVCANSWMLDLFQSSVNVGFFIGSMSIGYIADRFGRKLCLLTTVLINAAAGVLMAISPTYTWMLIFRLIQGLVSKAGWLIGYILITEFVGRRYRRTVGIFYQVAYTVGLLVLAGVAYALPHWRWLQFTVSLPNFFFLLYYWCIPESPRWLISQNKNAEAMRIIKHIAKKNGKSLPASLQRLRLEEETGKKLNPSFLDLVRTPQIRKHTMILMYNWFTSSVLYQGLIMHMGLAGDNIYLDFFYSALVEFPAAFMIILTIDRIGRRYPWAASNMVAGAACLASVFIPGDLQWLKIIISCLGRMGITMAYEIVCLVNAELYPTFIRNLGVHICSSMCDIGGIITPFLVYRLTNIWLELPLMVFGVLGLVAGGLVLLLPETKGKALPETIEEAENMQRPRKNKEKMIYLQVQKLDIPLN
The assay is described as follows: [3H]tryptophan uptake ([…]) in oocytes expressing the variant.

Assay [4] has as its target T2, Organic cation transporter 2 (OCT2). Description: [3H]MPP+ uptake ([…]) in OCT2-expressing oocytes, water-injected background subtracted.
Assay [5] concerns the target T4, Organic cation transporter 2 (OCT2) (Homo sapiens, UniProt O15244).
T4 construct: gene SLC22A2; OCT2 expressed in oocytes
T4 sequence (O15244 1-555): T3 sequence (O15244 1-555)
Description: inhibition of [3H]MPP+ uptake in OCT2-expressing oocytes.

3 compounds from PMC3348126, “Pharmacogenetics Meets Metabolomics: Discovery of Tryptophan as a New Endogenous OCT2 Substrate Related to Metformin Disposition” (PLoS ONE, 2012) can be followed below.

Regarding `N[C@@H](Cc1c[nH]c2ccccc12)C(=O)O` [L-tryptophan], the inhibition at 1000 µM in assay [1] turned out to be 50%. Further, in assay [2], half-maximal inhibition (IC50) was put at 6.11 mM. The “[3H]tryptophan uptake (100 nM) in oocytes expressing the variant” value in assay [3] is reported as 0.14 fmol/min/oocyte.

Regarding `C[n+]1ccc(-c2ccccc2)cc1` [MPP+], the “[3H]MPP+ uptake (18.5 nM) in OCT2-expressing oocytes, water-injected background” value in assay [4] stood at 2.9 fmol/min/oocyte.

In assay [5], `O=c1ccn([C@@H]2O[C@H](CO)[C@@H](O)[C@H]2O)c(=O)[nH]1` [uridine] registered an IC50 of 51.5 mM.
